Measured values published in patent US7018642B2 (The Procter & Gamble Company, priority 2001, dated 2006).

How the values were obtained:
Type in all cases: cell-based
[1] = test system: P. fluorescens strain ATCC 13525; experiment: Improved biofilm dispersion screen (already-formed biofilms, crystal violet); conditions: Pseudomonas fluorescens, ATCC13525, 20 mM NaOH step, positive = dispersion, negative = enhancement of pre-existing biofilm, quadruplicate, read-out: average percentage reduction of biofilm relative to the two control values (dispersion)
Procedure: (§1) A modification of method disclosed in Reference Example 2, which greatly improves the sensitivity and reproducibility of the dispersion screen is hereby disclosed. […] In the modification described herein, compounds are added in the presence of the fresh liquid growth media, such that the resultant biofilms continue to grow, unless a test compound triggers their dispersion. Overnight cultures are made as above, and 100 μL of the appropriate liquid growth media are dispensed into duplicate 96 well microplates—in this fashion, two identical microplates are set up for each bacterial species to be assayed. Neither compounds nor DMSO are added prior to the inoculation of bacteria, and growth in the duplicate plates for 24 hours is allowed using the conditions specified in Reference Example 1. After growth of biofilm to be tested in the wells, cells present in biofilm attached to one of the duplicate microplates is stained with CV, quantitated as described in Reference Example 1, and the data for the entire plate averaged, resulting in a growth control value, t0. The remaining replicate of each microplate pairs is treated with compounds in DMSO, or DMSO alone for control wells, by first removing the cell suspensions from the wells, then adding fresh 100 μL volumes of the same appropriate liquid growth media, followed by direct addition and mixing of the compound DMSO solutions to give final compound concentrations of 390 μM. Incubation of the compound-containing microplates is then continued for an additional 22–26 hours using the same conditions described in Reference Example 1. Cell suspensions are then removed, 100 μL per well of a 0 mM NaOH (S. epidermidis), 20 mM NaOH (P. fluorescens), or 30 mM NaOH (P. aeruginosa) solution in PBS is added, and incubation at room temperature is allowed for 30 minutes. No addition of NaOH is made to the S. epidermidis suspension since a test assay indicated no amplification by base with S. epidermidis. The microplates are subsequently rinsed three times with 150 μL per well of PBS, followed by final liquid removal, staining with CV and quantitation as described in Reference Example 1. Data for each well that contained compound result in a compound value, R, and data for control wells that contained DMSO only are averaged to generate a second control value, t24. The effect of each compound tested on dispersion of the biofilm compared to the two control values is calculated thus: [formula] […] Data are expressed in terms of the average percentage reduction of biofilm formed in the presence of each compound, relative to the two control values, for quadruplicate samples. Assays are run as described above, using compound concentrations of 390 μM. Positive numbers indicate dispersion (reduction) of pre-existing biofilms by a compound, and negative numbers indicate enhancement (stimulation of growth) of pre-existing biofilms by a compound (percentage coefficients of variation are ≦15%).

[2] = test system: P. aeruginosa strain PAO1; experiment: as above; conditions: Pseudomonas aeruginosa, 30 mM NaOH step, positive = dispersion, negative = enhancement of pre-existing biofilm, quadruplicate, read-out: average percentage reduction of biofilm relative to the two control values (dispersion)
Procedure: as §1

[3] = test system: S. epidermidis strain ATCC 35984; experiment: as above; conditions: Staphylococcus epidermidis, ATCC35984, no NaOH, positive = dispersion, negative = enhancement of pre-existing biofilm, quadruplicate, read-out: average percentage reduction of biofilm relative to the two control values (dispersion)
Procedure: as §1

[4] = test system: P. fluorescens strain ATCC 13525; experiment: Biofilm prevention screen (96-well microplate, crystal violet); conditions: Pseudomonas fluorescens, positive = prevention, negative = enhancement of biofilm formation, quadruplicate, read-out: average percentage reduction of biofilm formed relative to DMSO controls; for inhibition at 32 µM: ATCC13525, 32 μM; for inhibition at 160 µM: ATCC13525, 160 μM; for inhibition at 390 µM: ATCC13525, 390 μM
Procedure: (§2) Overnight cultures of 3 mL are made of P. aeruginosa strain PAO1 (grown in R2A medium (Handbook of Microbiological Media; CRC Press, 1997, second edition, R. M. Atlas, ed.), modified to omit Mg^2+ but to include 0.3–0.5% fructose (pH 7.0) and 3 μM ferrous ammonium sulfate), P. fluorescens strain ATCC 13525 (grown in R2A modified to omit Mg^2+ but to include 0.3–0.5% sodium pyruvate (pH 7.0)), S. epidermidis strain ATCC 35984 (grown in a ¼ dilution of TSB (Handbook of Microbiological Media; CRC Press, 1997, second edition, R. M. Atlas, ed.) supplemented with 1% fructose (pH 7.0) and 3 μM ferrous ammonium sulfate). To each type of growth medium, HEPES (pH 7.3) is optionally added to a final concentration of 10 mM.
(§3) To PS, PVC, or PP (preferably PP or PVC) round-bottom, 96-well microplates containing 100 μl per well of the respective growth medium as described above, compounds to be tested (dissolved in DMSO) are added and mixed, to give a final concentration of 250–500 μM. These microplates then also are used to make successive dilutions of the compounds in the same respective growth medium to yield microplates containing final concentrations of, for example, 160 μM and 32 μM of the same set of compounds. Control wells are included in the dilution series that contain only DMSO. From the 3 ml overnight cultures, each of the three dilution plate sets is inoculated with 5 μl per well of a 1:1 dilution in the same liquid growth media of the appropriate culture. The covered plate is then incubated with shaking, at 30° C. (for P. aeruginosa or P. fluorescens) or 37° C. (for S. epidermidis), at 200 rpm, for 16–26 hours, in a humidity controlled environment.
(§4) Cells present in biofilm attached to the microplate surface are stained with CV either after removal of the liquid from each well, followed by rinsing three times (aspiration and addition) with 150 μl per well phosphate buffered saline solution (PBS) and final addition of 100 μl per well of PBS, or by direct addition of stain to bacterial cultures without rinsing. To 100 μl per well of PBS or of bacterial culture, 25 μl/well of 1% CV solution (in ˜10% ethanol) is added. After incubation at room temperature for 45 minutes, the dye solution is removed from the plates. Residual dye is immediately removed by gentle rinsing with a stream of deionized water by filling and inverting the plates 4–5 times, or by using an automated pipettor. Rinsed plates are air-dried at room temperature for 0.5–2 hours. Bound dye is extracted by the addition of 150 μL per well of 95% ethanol, followed by vigorous mixing for 10–15 seconds and incubation for 45 minutes at room temperature without shaking. Subsequently, either undiluted or diluted (in ethanol) samples of extracted CV are transferred to flat bottom, polystyrene microtiter plates and absorbances at 586 nm were measured in a microplate reader. Readings from wells containing compounds are compared to the average of data from control wells that contain only DMSO. Replicate samples are measured, and results are reported as averages of the replicate well data points.
(§5) Data are expressed in terms of the average percentage reduction of biofilm formed in the presence of each compound, relative to the DMSO controls, for quadruplicate samples. Assays are run using the three compound concentrations indicated. Positive numbers indicate prevention of biofilm formation by a compound, and negative numbers indicate enhancement of biofilm formation by a compound (percentage coefficients of variation are ≦10%).

[5] = test system: P. aeruginosa strain PAO1; experiment: as above; conditions: Pseudomonas aeruginosa, positive = prevention, negative = enhancement of biofilm formation, quadruplicate, read-out: average percentage reduction of biofilm formed relative to DMSO controls
Procedure: as §2, §3, §4, §5

[6] = test system: S. epidermidis strain ATCC 35984; experiment: as above; conditions: Staphylococcus epidermidis, positive = prevention, negative = enhancement of biofilm formation, quadruplicate, read-out: average percentage reduction of biofilm formed relative to DMSO controls; for inhibition at 32 µM: ATCC35984, 32 μM; for inhibition at 160 µM: ATCC35984, 160 μM; for inhibition at 390 µM: ATCC35984, 390 μM
Procedure: as §2, §3, §4, §5

| Compound | inhibition at 390 µM [1] | inhibition at 390 µM [2] | inhibition at 390 µM [3] | inhibition at 32 µM [4] | inhibition at 160 µM [4] | inhibition at 390 µM [4] | inhibition at 32 µM [5] | inhibition at 160 µM [5] | inhibition at 390 µM [5] | inhibition at 32 µM [6] | inhibition at 160 µM [6] | inhibition at 390 µM [6] |
| --- | --- | --- | --- | --- | --- | --- | --- | --- | --- | --- | --- | --- |
| CCCCCCCCCCNC(=O)[C@@H]1CCCN1C(=O)OC(C)(C)C [Compound 12, N-(tert-Butoxycarbonyl)-L-proline n-decyl amide] | -30% | -30% | 0% | -16% | -42% | -37% | 6% | -45% | -32% | -21% | -2% | 31% |
| CCCCCCCCCCCCNC(=O)[C@H]1CCCN1 [Compound 167] | 0% | 4% | 78% | 38% | 95% | 92% | 4% | 49% | 93% | 40% | 100% | 99% |
| CCCCCCNC(=O)[C@H]1CCCN1 [Compound 163] | 12% | 4% | -5% | 5% | 6% | 22% | 1% | 22% | 46% | -3% | -5% | -10% |
| CCCCNC(=O)[C@H]1CCCN1C(=O)OC(C)(C)C [Compound 152] | 1% | -9% | -4% | 5% | 5% | -7% | -4% | -9% | 2% | -5% | -13% | -8% |
| CCCCCCCCNC(=O)[C@H]1CCCCN1C(=O)OC(C)(C)C [Compound 22, (R)-(+)-1-(tert-Butoxycarbonyl)-2-piperidinecarboxylic acid n-octyl amide] | 0% | -54% | 0% | 3% | 27% | 25% | 0% | -8% | -6% | -6% | -17% | 3% |
| CCCCCCNC(=O)C1CCCN1C(C)=O (racemic) [Compound 7] | -4% | -6% | 0% | -11% | -30% | -32% | -13% | -20% | -13% | -10% | 6% | -11% |
| CCCCCCCCCCCCNC(=O)[C@@H]1CCCN1C(=O)OC(C)(C)C [Compound 160] | -44% | -52% | 0% | -1% | 0% | -18% | -2% | -44% | -59% | -9% | 20% | 29% |
| CCCCNC(=O)[C@@H]1CCCN1 [Compound 165] | 6% | 0% | -3% | 10% | 4% | 20% | 2% | -16% | 1% | -6% | -15% | -12% |
| CCCCCCCCCCCCNC(=O)[C@@H]1CCN1C(=O)OC(C)(C)C [Compound 286] |  | -83% | 0% | -9% | -60% | -98% | -5% | -22% | -54% | -15% | -29% | 12% |
